The values that follow come from patent US7691854B2, “Dihydropyridine derivatives for use as human neutrophil elastase inhibitors” (Bayer Schering Pharma Aktiengesellschaft, priority 2002, dated 2010).

What is called IC50 is the concentration at which inhibition is half-maximal.

The test system of one assay is human polymorphonuclear cells (PMNs). As to the kind of experiment: In vitro PMN elastolysis assay (tritiated elastin). The format is cell-based. The following applies: at 1.2 μM; n=3 different donors at 3.6×10^5 cells per well. As to the method:
In Vitro PMN Elastolysis Assay:
This assay is used to determine the elastolytic potential of human polymorphonuclear cells (PMNs) and assess the proportion of degradation due to, neutrophil elastase [cf. Z. W. She et al., Am. J. Respir. Cell. Mol. Biol. 9, 386-392 (1993)].
Tritiated elastin, in suspension, is coated on to a 96 well plate at 10 μg per well. Test and reference [ZD-0892 (J. Med. Chem. 40, 1876-1885, 3173-3181 (1997), WO 95/21855) and α1 protease inhibitor (α1PI)] compounds are added to the wells at the appropriate concentrations. Human PMNs are separated from peripheral venous blood of healthy donors and resuspended in culture media. The neutrophils are added to the coated wells at concentrations ranging between 1×10^6 to 1×10^5 cells per well. Porcine pancreatic elastase (1.3 μM) is used as a positive control for the assay, and α1PI (1.2 μM) is used as the positive inhibitor of neutrophil elastase. The cellular control is PMNs without compound at each appropriate cell density. The cells plus compounds are incubated in a humidified incubator at 37° C. for 4 hours. The plates are centrifuged to allow the harvest of cell supernatant only. The supernatant is transferred in 75 μl volumes to corresponding wells of a 96 well Lumaplate™ (solid scintillant containing plates). The plates are dried until no liquid is visible in the wells and read in a beta counter for 3 minutes per well. […]
Turning to “α1PI: α1 protease inhibitor, reference and positive inhibitor of neutrophil elastase”, the “inhibition of elastolysis of 3H-elastin (mean±s.e.m.)” value turned out to be 83.46±3.97%.

The same assay, now with this note: n=2 different donors at 3.6×10^5 cells per well; read-out: IC50 (mean±s.e.m.).
In the case of `COc1ccc(C(=O)N[C@H](C(=O)N2CCC[C@H]2C(=O)N[C@H](C(=O)C(F)(F)F)C(C)C)C(C)C)cc1` [ZD-0892], the IC50 stood at 45.5 ± 7.75 nM.

Another assay deals with T1, human neutrophil elastase (HNE) (Homo sapiens, UniProt P08246).
T1 construct: purchased SERVA Electrophoresis GmbH, Heidelberg, Germany #20927.01
T1 sequence (P08246 30-267): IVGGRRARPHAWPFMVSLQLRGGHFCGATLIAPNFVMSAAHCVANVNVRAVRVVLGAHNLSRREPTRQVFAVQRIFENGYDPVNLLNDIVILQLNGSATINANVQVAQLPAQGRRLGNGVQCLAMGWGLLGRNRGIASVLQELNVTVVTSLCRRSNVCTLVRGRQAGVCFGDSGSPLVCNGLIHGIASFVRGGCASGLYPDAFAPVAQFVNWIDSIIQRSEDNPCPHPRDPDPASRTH
The experiment in a line: In vitro inhibition of HNE using a fluorogenic peptide substrate (MeOSuc-Ala-Ala-Pro-Val-AMC). The format is biochemical. To be noted: 384 MTP format. The procedure:
I. In Vitro Enzyme Assays of Human Neutrophil Elastase (HNE)
• assay buffer: 0.1 M HEPES-NaOH buffer pH 7.4, 0.5 M NaCl, 0.1% (w/v) bovine serum albumin; • suitable concentration (see below) of HNE (18 U/mg lyophil., #20927.01, SERVA Electrophoresis GmbH, Heidelberg, Germany) in assay buffer; • suitable concentration (see below) of substrate in assay buffer; • suitable concentration of test compounds diluted with assay buffer from a 10 mM stock solution in DMSO.
In Vitro Inhibition of HNE Using a Fluorogenic Peptide Substrate (Continuous Read-Out Signal, 384 MTP Assay Format):
In this protocol, the elastase substrate MeOSuc-Ala-Ala-Pro-Val-AMC (#324740, Calbiochem-Novabiochem Corporation, Merck KGaA, Darmstadt, Germany) is used. The test solution is prepared by mixing 10 μl of test compound dilution, 20 μl of HNE enzyme dilution (final concentration 8-0.4 μU/ml, routinely 2.1 μU/ml) and 20 μl of substrate dilution (final concentration 1 mM-1 μM, routinely 20 μM), respectively. The solution is incubated for 0-2 hrs at 37° C. (routinely one hour). The fluorescence of the liberated AMC due to the enzymatic reaction is measured at 37° C. (TECAN spectra fluor plus plate reader). The rate of increase of the fluorescence (ex. 395 nm, em. 460 nm) is proportional to elastase activity. IC50 values are determined by RFU-versus-[I] plots. Km and Km(app.) values are determined by Lineweaver-Burk plots and converted to Ki values by Dixon plots.
In the case of `CCOC(=O)C1=C(N)N(c2cccc(C(F)(F)F)c2)C(COC)=C(C(=O)OC)C1c1ccc(C#N)cc1` (stereo not shown) [Example 25], inhibition was half-maximal at 40 nM (IC50). On the same count and under the same terms, next, `CC1=C(C#N)C(c2ccc(C#N)cc2)C(C(N)=O)=C(N)N1c1cccc(C(F)(F)F)c1` (stereo not shown) [Example 4, 2-Amino-5-cyano-4-(4-cyanophenyl)-6-methyl-1-[3-(trifluoromethyl)phenyl]-1,4-dihydro-3-pyridinecarboxamide]: 27 nM; `CCOC(=O)C1=C(C)N(c2cccc(C(F)(F)F)c2)C(N)=C(C(=O)OCC)C1c1ccc(Br)nc1` (stereo not shown) [Example 43]: 800 nM.

For `CCOC(=O)C1=C(C)N(c2cccc(C(F)(F)F)c2)C(N)=C(C(=O)OCC)C1c1ccc(C#N)cc1` (stereo not shown) [Example 2, Diethyl 2-amino-4-(4-cyanophenyl)-6-methyl-1-[3-(trifluoromethyl)phenyl]-1,4-dihydro-3,5-pyridine-dicarboxylate], the IC50 was 30 nM. In turn, `CCOC(=O)C1=C(C)N(c2cccc(C(F)(F)F)c2)C(N(C)C)=C(C(=O)OCC)C1c1ccc(C#N)cc1` (stereo not shown) [Example 47, Diethyl 4-(4-cyanophenyl)-2-(dimethylamino)-6-methyl-1-[3-(trifluoromethyl)-phenyl]-1,4-dihydro-3,5-pyridinedicarboxylate] gave a half-maximal inhibitory concentration (IC50) of 500 nM. The same measure, in the same setting: with `CCNC(=O)NC1=C(C(=O)OCC)C(c2ccc(C#N)cc2)C(C(=O)OCC)=C(C)N1c1cccc(C(F)(F)F)c1` (stereo not shown) [Example 44, Diethyl 4-(4-cyanophenyl)-2-{[(ethylamino)carbonyl]amino}-6-methyl-1-[3-(trifluoromethyl)phenyl]-1,4-dihydro-3,5-pyridinedicarboxylate] the figure was 130 nM; with `CC(=O)C1=C(N)N(c2cccc(C(F)(F)F)c2)C(C)=C(C#N)C1c1ccc(C#N)cc1` (stereo not shown) [Example 12, 5-Acetyl-6-amino-4-(4-cyanophenyl)-2-methyl-1-[3-(trifluoromethyl)phenyl]-1,4-dihydro-3-pyridinecarbonitrile], 90 nM; with `CCOC(=O)C1=C(C)N(c2cccc(C(F)(F)F)c2)C(N)=C(C2=NC(C)(C)CO2)C1c1ccc(C#N)cc1` (stereo not shown) [Example 50, Ethyl 6-amino-4-(4-cyanophenyl)-5-(4,4-dimethyl-4,5-dihydro-1,3-oxazol-2-yl)-2-methyl-1-[3-(trifluoromethyl)phenyl]-1,4-dihydro-3-pyridinecarboxylate], 10 nM.
